In patent US7524885B2, “Compounds that stimulate glucose utilization and methods of use” (The Governors of the University of Alberta, priority 2002, dated 2009):

The compounds below were run on isolated working rat heart (assay: Glucose oxidation in isolated perfused working rat heart ([U-14C]glucose, 14CO2 production)). Conditions: Table 2A; screening concentration 100 μM; isolated working rat heart; read-out: Glucose Oxidation (% above control).
Method: Rat hearts were cannulated for isolated working heart 60 minute aerobic perfusions as described in J Pharmacol Exp Ther. 1993; 264:135-144, the entire disclosure of which is incorporated herein by reference.
Male Sprague-Dawley rats (0.3-0.35 kg) were anesthetized with pentobarbital sodium (60 mg/kg IP) and hearts were quickly excised, the aorta was cannulated and a retrograde perfusion at 37° C. was initiated at a hydrostatic pressure of 60 mm Hg. Hearts were trimmed of excess tissue, and the pulmonary artery and the opening to the left atrium were then cannulated. After 15 min of Langendorff perfusion, hearts were switched to the working mode by clamping the aortic inflow line from the Langendorff reservoir and opening the left atrial inflow line. The perfusate was delivered from an oxygenator into the left atrium at a constant preload pressure of 11 mm Hg. Perfusate was ejected from spontaneously beating hearts into a compliance chamber (containing 1 ml of air) and into the aortic outflow line. The afterload was set at a hydrostatic pressure of 80 mm Hg. All working hearts were perfused with Krebs'-Henseleit solution containing calcium 2.5 mmol/L, glucose 5.5 mmol/L, 3% bovine serum albumin (fatty acid free, initial fractionation by heat shock, Sigma), and with 1.2 mmol/L palmitate. Palmitate was bound to the albumin as described in J Bio Chem. 1992; 267:3825-3831, the entire disclosure of which is incorporated herein by reference.
The perfusate was recirculated, and pH was adjusted to 7.4 by bubbling with a mixture containing 95% O2 and 5% CO2.
Spontaneously beating hearts were used in all perfusions. Heart rate and aortic pressure were measured with a Biopac Systems Inc. blood pressure transducer connected to the aortic outflow line. Cardiac output and aortic flow were measured with Transonic T206 ultrasonic flow probes in the preload and afterload lines, respectively. Coronary flow was calculated as the difference between cardiac output and aortic flow. Cardiac work was calculated as the product of systolic pressure and cardiac output.
Measurement of Glucose Oxidation: Glucose oxidation was measured simultaneously by perfusing hearts with [U-^14C] glucose according to the procedures discussed in Saddik M, et al., J Bio Chem. 1992; 267:3825-3831. The entire disclosure of this reference is incorporated herein by reference. The total myocardial ^14CO2 production was determined at 10-min intervals from the 60-min aerobic period. Glucose oxidation rates were determined by quantitative measurement of ^14CO2 production as described in Barbour RL, et al., Biochemistry. 1984; […]. The entire disclosure of this reference is incorporated herein by reference. ^14CO2 production for the control group were compared with the ^14CO2 production for the group treated with cyclopropanecarboxylic acid, 2-[2-(2-methoxy-ethoxy)-ethoxy]-ethyl ester. Results are shown on FIG. 1 and TABLE 2A.
The procedure of Example A for was followed except that cyclobutanecarboxylic acid, 2-[2-(2-methoxy-ethoxy)-ethoxy]-ethyl ester in 1 μM, 10 μM, 100 μM and 1000 μM amounts was added to the buffer in place of the cyclopropanecarboxylic acid, 2-[2-(2-methoxy-ethoxy)-ethoxy]-ethyl ester. The results are illustrated in FIG. 2 and TABLE 2A.
The procedure of Example A was followed except that cyclopropanecarboxylic acid, 2-isopropoxy-ethyl ester in 1 μM, 10 μM, 100 μM and 1000 μM amounts was added to the buffer in place of the cyclopropanecarboxylic acid, 2-[2-(2-methoxy-ethoxy)-ethoxy]-ethyl ester. The results are illustrated in FIG. 3 and TABLE 2A.
The procedure of Example A was followed except that various cyclobutanecarboxylic acid derivatives, cyclopropanecarboxylic acid derivatives and cyclobutanecarboxylic acid in the amounts of 100 μM or 1000 μM was added to the buffer in place of the cyclopropanecarboxylic acid, 2-[2-(2-methoxy-ethoxy)-ethoxy]-ethyl ester.

Compound	activation at 100 µM [%]
CC(C)OCCOC(=O)[C@@H]1C[C@H]1c1ccccc1 (racemic) [Compound 25MM078, trans-2-Phenyl-cyclopropanecarboxylic acid 2-isopropoxy-ethyl ester]	200
COCCOCCOCCOC(=O)C1CC1 [Compound 1MM054, Cyclopropanecarboxylic acid 2-[2-(2-methoxy-ethoxy)-ethoxy]-ethyl ester]	102
COCCOCCOCCOC(=O)C1CCC1 [Compound 3MM056, Cyclobutanecarboxylic Acid, 2-[2-(2-methoxy-ethoxy)-ethoxy]-ethyl ester]	54
O=C(OCCOCCOCc1ccccc1)C1CC1 [Compound 4MM057, Cyclopropanecarboxylic acid 2-(2-benzyloxy-ethoxy)-ethyl ester]	104
O=C(OCCOCCOCc1ccccc1)C1CCC1 [Compound 6MM059, Cyclobutanecarboxylic acid 2-(2-benzyloxy-ethoxy)-ethyl ester]	68
CCCCOCCOCCOC(=O)C1CCC1 [Compound 7MM060, Cyclobutanecarboxylic acid, 2-(2-butoxy-ethoxy)-ethyl ester]	65
CN(C)CCOCCOC(=O)C1CC1 [Compound 9MM062, Cyclopropanecarboxylic acid 2-(2-dimethylamino-ethoxy)-ethyl ester]	77
CN(C)CCOCCOC(=O)C1CCC1 [Compound 10MM063, Cyclobutanecarboxylic acid 2-(2-dimethylamino-ethoxy)-ethyl ester]	41
CCCCCCOCCOCCOC(=O)C1CC1 [Compound 11MM064, Cyclopropanecarboxylic acid 2-(2-hexyloxy-ethoxy)-ethyl ester]	83
CCCCCCOCCOCCOC(=O)C1CCC1 [Compound 12MM065, Cyclobutanecarboxylic acid 2-(2-hexyloxy-ethoxy)-ethyl ester]	0
COCCOCCOC(=O)C1CC1 [Compound 13MM066, Cyclopropanecarboxylic acid 2-(2-methoxy-ethoxy)-ethyl ester]	20
COCCOCCOC(=O)C1CCC1 [Compound 14MM067, Cyclobutanecarboxylic acid 2-(2-methoxy-ethoxy)-ethyl ester]	50
CCOCCOC(=O)C1CC1 [Compound 15MM068, Cyclopropanecarboxylic acid 2-ethoxy-ethyl ester]	416
CCOCCOC(=O)C1CCC1 [Compound 16MM069, Cyclobutanecarboxylic acid 2-ethoxy-ethyl ester]	162
CC(C)OCCOC(=O)C1CC1 [Compound 17MM070, Cyclopropanecarboxylic acid 2-isopropoxy-ethyl ester]	208
CC(C)OCCOC(=O)C1CCC1 [Compound 18MM071, Cyclobutanecarboxylic acid 2-isopropoxy-ethyl ester]	97
O=C(OCCOCCOC(=O)C1CC1)C1CC1 [Compound 19MM072, Cyclopropanecarboxylic acid, 2-(2-cyclopropanecarbonyloxy-ethoxy)-ethyl ester]	97
O=C(OCCOCCOC(=O)C1CCC1)C1CCC1 [Compound 20MM073, Cyclobutanecarboxylic acid, 2-(2-cyclobutanecarbonyloxy-ethoxy)-ethyl ester]	243
O=C(OCCOCCOCCOC(=O)C1CC1)C1CC1 [Compound 21MM074, Cyclopropanecarboxylic acid, 2-[2-(2-cyclopropanecarbonyloxy-ethoxy)-ethoxy]-ethyl ester]	228
O=C(OCCOCCOCCOC(=O)C1CCC1)C1CCC1 [Compound 22MM075, Cyclobutanecarboxylic Acid, 2-[2-(2-cyclobutanecarbonyloxy-ethoxy)-ethoxy]-ethyl ester]	184
O=C(OCCN(CCOC(=O)C1CC1)CCN(CCOC(=O)C1CC1)CCOC(=O)C1CC1)C1CC1 [Compound 23MM076, Cyclopropanecarboxylic acid 2-[{2-[bis(2-cyclopropanecarbonyloxy-ethyl)-amino]-ethyl}-(2-cyclopropanecarbonyloxy-ethyl)-amino] ethyl ester]	274
CC(C)OCCNC(=O)C1CC1 [Compound 24MM077, Cyclopropanecarboxylic acid (2-isopropoxy-ethyl)-amide]	217

Same assay, conditions: Table 2A; screening concentration 1000 μM; isolated working rat heart; read-out: Glucose Oxidation (% above control)

Compound	activation at 1000 µM [%]
O=C(O)CNC(=O)C1CCC1 [Compound 2MM055, (Cyclobutanecarbonyl-amino)-acetic acid]	58
CC(NC(=O)C1CC1)C(=O)O (stereo not shown) [Compound 5MM058, 2-(Cyclopropanecarbonyl-amino)-propionic acid]	40

Same assay, conditions: Table 2B; screening concentration 100 μM; isolated working rat heart; read-out: Glucose Oxidation (% above control)

Compound	activation at 100 µM [%]
CCOCCOC(=O)C1(c2ccccc2)CC1 [Compound 27MM080, 1-Phenyl-cyclopropanecarboxylic acid 2-ethoxy-ethyl ester]	148
CCOCCOC(=O)C1(C)CC1 [Compound 28MM081, 1-Methyl-cyclopropanecarboxylic acid, 2-Ethoxy-ethyl ester]	121
CCOCCOC(=O)C1C(C)(C)C1(C)C [Compound 29MM082, 2,2,3,3-Tetramethyl-cyclopropanecarboxylic acid, 2-Ethoxy-ethyl ester]	110
COCCOC(=O)C1CC1 [Compound 30MM083, Cyclopropanecarboxylic acid, 2-Methoxy-ethyl ester]	197
CCOCCOC(=O)C1(C(=O)OCCOCC)CC1 [Compound 31MM084, Cyclopropane-1,1-dicarboylic acid bis-(2-ethoxy-ethyl) ester]	197
CCOCCOC(=O)C1CC1C (stereo not drawn) [Compound 32MM085, Trans-2-methyl-cyclopropanecarboylic acid 2-ethoxy-ethyl ester]	150
CCOCCOC(=O)C1(C)CC1(Cl)Cl (stereo not shown) [Compound 33MM086, 2,2-Dichloro-1-methyl-cyclopropanecarboxylic acid 2-ethoxy-ethyl ester]	117
CCOCCOC(=O)[C@]1(/C=C/c2ccccc2)C[C@H]1c1ccccc1 [Compound 34MM087, (1S,2S)-2-phenyl-1-styrl-cyclopropanecarboxylic acid 2 ethoxy-ethyl ester]	112
O=C(OC[C@H]1O[C@H](OC(=O)C2CC2)[C@H](OC(=O)C2CC2)[C@@H](OC(=O)C2CC2)[C@@H]1OC(=O)C1CC1)C1CC1 [Compound 35MM088, 1,2,3,4,6-penta-O-(cyclopropanecarbonyl)-D-glucopyranose]	205
Cc1ncsc1CCOC(=O)C1CC1 [Compound 36MM089, Cyclopropanecarboxylic acid 2-(4-methyl-thiazol-5-yl)-ethyl ester]	202
COC(=O)CSC(=O)C1CC1 [Compound 37MM090, Cyclopropanecarbonylsulfanyl-acetic acid methyl ester]	251
CC(=O)NCCSC(=O)C1CC1 [Compound 38MM091, Cyclopropanecarbothioic acid S-(2-acetylamino-ethyl) ester]	176
O=C(OCCN1CCOCC1)C1CC1 [Compound 39MM092, Cyclopropanecarboxylic acid 2-morpholin-4-yl-ethyl ester]	233
